The record followed here is US5573999A, “β-substituted cinnamic acid derivative” (BASF Aktiengesellschaft, priority 1991, dated 1996).

For experiment [1], the system named is mitochondrial respiration. The experiment can be described thus: Inhibition of mitochondrial respiration (rate of reduction of cytochrome c in isolated mitochondria), yeast. Format: biochemical, Saccharomyces cerevisiae. The settings on record: DMSO control. The source says:
In order to determine the effect of the compounds according to the invention on mitochondrial respiration it is first necessary to isolate the mitochondria from the organisms being investigated. For this, in the case of the yeast Saccharomyces cerevisiae, the cells in a 30 to 40% strength suspension of the yeast in an aqueous solution of 0.6M mannitol+0.01M tris[hydroxymethyl]-aminomethane+0.002M disodium ethylenediaminetetraacetate (pH 6.8) are disrupted in a glass bead mill, and the extract is fractionated by differential centrifugation at 1000× g and 12000× g. The mitochondria are in the pellet from the 12000× g centrifugation.
(§1) Used as control is a mixture with the equivalent amount of pure DMSO. The inhibition at the concentration of agent in each case is then calculated as follows [formula] where ΔE is the change in extinction, at is the change in time, [formula] is the reaction rate for the control and [formula] is the reaction rate for the sample x.
(§2) The inhibition was determined in each case at a test substance concentration of 1.8/10^-5mol/l .

The subject of experiment [2] is Plasmopara viticola. Kind of experiment: Activity against Plasmopara viticola on potted vines. Format: in vivo. The note with it: aqueous dispersion containing 250 ppm active ingredient, infected 8 days after spraying. The method, then:
Leaves of potted vines of the Muller Thurgau variety were sprayed with an aqueous liquor which contained 80% of active ingredient and 20% of emulsifier in dry matter. To assess the duration of action of the active ingredient, after the sprayed-on layer had dried the plants were placed in a greenhouse for 8 days. The leaves were then infected with a suspension of Plasmopara viticola zoospores. The vines were then placed first in a chamber saturated with water vapor at 24° C. for 48 hours and then in a greenhouse at from 20° to 30° C. for 5 days. After this, to speed up sporangiophore discharge, the plants were again placed in the humidity chamber for 16 hours. The extent of fungus attack was then assessed on the undersides of the leaves.

For experiment [3], the system named is mitochondrial respiration. Kind of experiment: Inhibition of mitochondrial respiration (rate of reduction of cytochrome c in isolated mitochondria), house fly. It counts as biochemical, Musca domestica. The settings on record: DMSO control.
Source text: It is also possible similarly to isolate mitochondria from other organisms, e.g. from the phytopathogenic fungus Drechslera sorokiniana (synonym: Helminthosporium sativum), from the dermatophyte Trichophyton mentagrophytes, which is a human pathogen, and, for example, from the house fly (Musca domestica) as insect or from the spider mite Tetranychus urticae.
as §1, §2

Turning to `COC(=O)/C=C(/OC)c1ccccc1/C=C\c1cnn(-c2ccc(Cl)cc2)c1` [Compound 1a.321], the “% inhibition of respiration at 1.8 × 10^-5 mol/l test substance, Saccharomyces cerevisiae” value (from here on “% inhibition … Saccharomyces cerevisiae”) in experiment [1] stood at 19%. The “fungal attack, Plasmopara viticola” value in experiment [2] was found to be 10%.

With `COC(=O)/C=C(/OC)c1ccccc1/C=C/c1csc(-c2ccc(C)cc2)n1` [Compound 1a.312], the “% inhibition … Saccharomyces cerevisiae” value in experiment [1] worked out at 99%. Further, the “fungal attack, Plasmopara viticola” value in experiment [2] came to 10%.

Consider `COC(=O)/C=C(/OC)c1ccccc1/C=C/c1cnn(-c2ccc(OC)cc2)c1` [Compound 1a.318], for which the “% inhibition … Saccharomyces cerevisiae” value in experiment [1] was determined as 98%. In addition, in experiment [2], the “fungal attack, Plasmopara viticola” value is listed as 10%.

Regarding `COC(=O)/C=C(/OC)c1ccccc1/C=C\c1ccccc1C(F)(F)F` [Compound 1a.244], the “% inhibition of respiration at 1.8 × 10^-5 mol/l test substance, Musca domestica” value (from here on “% inhibition of respiration … Musca domestica”) in experiment [3] is listed as 50%. Besides, the “% inhibition … Saccharomyces cerevisiae” value in experiment [1] came out at 65%.

`COC(=O)/C=C(/OC)c1ccccc1COc1ccc(Oc2ccccc2)cc1` [Compound 1a.31]: the “fungal attack, Plasmopara viticola” value in experiment [2] came out at 10%.

In the case of `COC(=O)/C=C(/OC)c1ccccc1/C=C/c1cc(-c2ccc(Cl)cc2)no1` [Compound 1a.300], in experiment [3], the “% inhibition of respiration … Musca domestica” value is on record as 93%. The “% inhibition … Saccharomyces cerevisiae” value in experiment [1] is 98%.

Consider `COC(=O)/C=C(/OC)c1ccccc1/C=C\c1ccoc1` [Compound 1a.293], for which, in experiment [3], the “% inhibition of respiration … Musca domestica” value is reported as 27%. Moreover, the “% inhibition … Saccharomyces cerevisiae” value in experiment [1] is 65%.

In the case of `COC(=O)/C=C(/OC)c1ccccc1/C=C/c1csc(-c2ccccc2)n1` [Compound 1a.306], in experiment [3], the “% inhibition of respiration … Musca domestica” value came out at 96%. Also, in experiment [1], the “% inhibition … Saccharomyces cerevisiae” value is recorded as 98%.

Turning to `COC(=O)/C=C(/OC)c1ccccc1/C=C\c1cccc([N+](=O)[O-])c1` [Compound 1a.241], the “% inhibition of respiration … Musca domestica” value in experiment [3] came out at 9%. The “% inhibition … Saccharomyces cerevisiae” value in experiment [1] was determined as 20%.

As to `COC(=O)/C=C(/OC)c1ccccc1/C=C\c1cccs1` [Compound 1a.295], in experiment [3], the “% inhibition of respiration … Musca domestica” value is listed as 76%. The “% inhibition … Saccharomyces cerevisiae” value in experiment [1] was found to be 94%.

As for `COC(=O)/C=C(/OC)c1ccccc1/C=C\c1cccc(Oc2ccccc2)c1` [Compound 1a.272], in experiment [3], the “% inhibition of respiration … Musca domestica” value amounted to 78%. For the same compound, in experiment [1], the “% inhibition … Saccharomyces cerevisiae” value is 51%.

Take `COC(=O)/C=C(/OC)c1ccccc1/C=C/c1ccc(C(F)(F)F)cc1` [Compound 1a.519]: the “% inhibition of respiration … Musca domestica” value in experiment [3] is reported as 89%. Further, in experiment [1], the “% inhibition … Saccharomyces cerevisiae” value was found to be 97%.

Regarding `COC(=O)/C=C(/OC)c1ccccc1/C=C\c1ccsc1` [Compound 1a.297], the “% inhibition of respiration … Musca domestica” value in experiment [3] is recorded as 22%. Further, the “% inhibition … Saccharomyces cerevisiae” value in experiment [1] came to 70%.

For the compound `COC(=O)/C=C(/OC)c1ccccc1/C=C/c1cccc(Oc2ccccc2)c1` [Compound 1a.271], the “% inhibition of respiration … Musca domestica” value in experiment [3] is 94%. The “% inhibition … Saccharomyces cerevisiae” value in experiment [1] was 92%.

Consider `CO/N=C(\C)c1ccc(OCc2ccccc2/C(C)=C\C(=O)OC)c(C)c1` [Compound 1a.112, methyl (Z)-β-methyl-2-[2-methyl-4-(1-(E)-methoximinoethyl)phenoxy]methylcinnamate], for which the “% inhibition … Saccharomyces cerevisiae” value in experiment [1] amounted to 99%.

For the compound `COC(=O)/C=C(/OC)c1ccccc1/C=C/c1ccccc1` [Compound 1a.233], in experiment [3], the “% inhibition of respiration … Musca domestica” value is reported as 89%. The “% inhibition … Saccharomyces cerevisiae” value in experiment [1] stood at 88%.

With `COC(=O)/C=C(/OC)c1ccccc1OCc1csc(-c2ccc(F)cc2)n1` [Compound 1.71, methyl (E)-β-methoxy-2-[2-(4-fluorophenyl)-4-thiazolylmethyloxy]cinnamate], the “% inhibition of respiration … Musca domestica” value in experiment [3] came to 18%. Also, the “% inhibition … Saccharomyces cerevisiae” value in experiment [1] amounted to 30%.

In the case of `COC(=O)/C=C(/OC)c1ccccc1/C=C/c1nc(-c2ccc(F)cc2)no1` [Compound 1a.310], the “% inhibition … Saccharomyces cerevisiae” value in experiment [1] is recorded as 99%. In addition, the “fungal attack, Plasmopara viticola” value in experiment [2] is listed as 10%.

`COC(=O)/C=C(/OC)c1ccccc1/C=C/c1cccc([N+](=O)[O-])c1` [Compound 1a.240]: the “% inhibition of respiration … Musca domestica” value in experiment [3] is reported as 84%. In experiment [1], the “% inhibition … Saccharomyces cerevisiae” value came to 94%.

With `CCOC(=O)/C=C(/OC)c1ccccc1COc1ccc(/C(C)=N/OC)cc1C` [Compound 1a.74, ethyl (E)-β-methoxy-2-[2-methyl-4-(1-methoximinoethyl)phenoxymethyl]cinnamate], the “% inhibition … Saccharomyces cerevisiae” value in experiment [1] is on record as 99%.

In the case of `CON=C(C)c1ccc(OCc2ccccc2/C(=C\C(=O)SC)OC)c(C)c1` [Compound 1a.86], the “% inhibition … Saccharomyces cerevisiae” value in experiment [1] is recorded as 97%.

`COC(=O)/C=C(/OC)c1ccccc1/C=C\c1coc(-c2ccc(Cl)cc2)n1` [Compound 1a.303]: in experiment [3], the “% inhibition of respiration … Musca domestica” value is 86%. For the same compound, the “% inhibition … Saccharomyces cerevisiae” value in experiment [1] stood at 98%.

With `COC(=O)/C=C(/C)c1ccccc1COc1ccccc1C` [Compound 1a.108, methyl (Z)-β-methyl-2-(2-methylphenoxymethyl)cinnamate], the “% inhibition … Saccharomyces cerevisiae” value in experiment [1] turned out to be 98%.

As for `COC(=O)/C=C(/OC)c1ccccc1/C=C\c1csc(-c2ccccc2)n1` [Compound 1a.307], the “% inhibition of respiration … Musca domestica” value in experiment [3] is 71%. Besides, in experiment [1], the “% inhibition … Saccharomyces cerevisiae” value worked out at 58%.

In the case of `CO/N=C(\C)c1ccc(OCc2ccccc2/C(C)=C/C(=O)OC)c(C)c1` [Compound 1a.113, methyl (E)-β-methyl-2-[2-methyl-4-(1-(E)-methoximinoethyl)phenoxy]methylcinnamate], the “% inhibition … Saccharomyces cerevisiae” value in experiment [1] amounted to 80%.

In the case of `COC(=O)/C=C(/OC)c1ccccc1COc1nc(-c2ccccc2)sc1C` [Compound 1a.182], the “% inhibition … Saccharomyces cerevisiae” value in experiment [1] worked out at 98%. Besides, the “fungal attack, Plasmopara viticola” value in experiment [2] is recorded as 10%.

Turning to `COC(=O)/C=C(/OC)c1ccccc1/C=C/c1nnc(-c2ccccc2)s1` [Compound 1a.308], in experiment [1], the “% inhibition … Saccharomyces cerevisiae” value was 99%.

As for `COC(=O)/C=C(/OC)c1ccccc1Oc1cccc(C)c1` [Compound 1.90, methyl (E)-β-methoxy-2-(3-methylphenoxy)cinnamate], the “% inhibition … Saccharomyces cerevisiae” value in experiment [1] is listed as 85%.

Turning to `COC(=O)/C=C(/OC)c1ccccc1/C=C/c1cc[nH]c1` [Compound 1a.288], the “% inhibition of respiration … Musca domestica” value in experiment [3] came out at 22%. For the same compound, in experiment [1], the “% inhibition … Saccharomyces cerevisiae” value is listed as 50%.

Consider `COC(=O)/C=C(/OC)c1ccccc1/C=C\c1ccn(-c2ccc(Cl)cc2)c1` [Compound 1a.305], for which the “% inhibition of respiration … Musca domestica” value in experiment [3] worked out at 39%. Besides, the “% inhibition … Saccharomyces cerevisiae” value in experiment [1] is recorded as 30%.

Consider `CO/N=C(\C)c1ccc(OCc2ccccc2/C(=C\C(=O)ON=C(C)C)OC)c(C)c1` [Compound 1a.82], for which the “% inhibition … Saccharomyces cerevisiae” value in experiment [1] is 94%.

Regarding `COC(=O)/C=C(/OC)c1ccccc1/C=C/c1cnn(-c2ccc(Cl)cc2)c1` [Compound 1a.320], the “% inhibition … Saccharomyces cerevisiae” value in experiment [1] was found to be 98%.

For `CCCCN(C)C(=O)/C=C(/OC)c1ccccc1COc1ccc(C(C)=NOC)cc1C` [Compound 1a.101], the “% inhibition … Saccharomyces cerevisiae” value in experiment [1] is on record as 69%.

For the compound `CCCOC(=O)/C=C(/OC)c1ccccc1COc1ccc(C(C)=NOC)cc1C` [Compound 1a.75], the “% inhibition … Saccharomyces cerevisiae” value in experiment [1] stood at 70%.

In the case of `COC(=O)/C=C(/OC)c1ccccc1/C=C/c1ccccc1C` [Compound 1a.247], the “% inhibition … Saccharomyces cerevisiae” value in experiment [1] was 99%.

Take `COC(=O)/C=C(\C)c1ccccc1COc1ccccc1C` [Compound 1a.109, methyl (E)-β-methyl-2-(2-methylphenoxymethyl)cinnamate]: the “% inhibition … Saccharomyces cerevisiae” value in experiment [1] stood at 31%.

On to `COC(=O)/C=C(/OC)c1ccccc1/C=C\c1cnn(-c2cccc(Cl)c2)c1` [Compound 1a.317], for which, in experiment [1], the “% inhibition … Saccharomyces cerevisiae” value turned out to be 29%.

For `COC(=O)/C=C(/OC)c1ccccc1/C=C\c1ccc(C)cc1` [Compound 1a.251], in experiment [1], the “% inhibition … Saccharomyces cerevisiae” value is listed as 54%.
